A value given as a limit tells only on which side of the number the result lay.

By IC50 is commonly meant the point on the concentration scale where inhibition reaches its midpoint.

The assay deals with endogenous CGRP receptor (Homo sapiens, UniProt O60894+Q16602). Briefly: CGRP functional antagonism using SK-N-MC-BLA (4C10), β-lactamase transcriptional reporter assay. Format: cell-based. The note with it: SK-N-MC (4C10) cells, inhibition of β-lactamase expression in the presence of 200 pM CGRP.
Sequence of endogenous CGRP receptor (Q16602 23-461): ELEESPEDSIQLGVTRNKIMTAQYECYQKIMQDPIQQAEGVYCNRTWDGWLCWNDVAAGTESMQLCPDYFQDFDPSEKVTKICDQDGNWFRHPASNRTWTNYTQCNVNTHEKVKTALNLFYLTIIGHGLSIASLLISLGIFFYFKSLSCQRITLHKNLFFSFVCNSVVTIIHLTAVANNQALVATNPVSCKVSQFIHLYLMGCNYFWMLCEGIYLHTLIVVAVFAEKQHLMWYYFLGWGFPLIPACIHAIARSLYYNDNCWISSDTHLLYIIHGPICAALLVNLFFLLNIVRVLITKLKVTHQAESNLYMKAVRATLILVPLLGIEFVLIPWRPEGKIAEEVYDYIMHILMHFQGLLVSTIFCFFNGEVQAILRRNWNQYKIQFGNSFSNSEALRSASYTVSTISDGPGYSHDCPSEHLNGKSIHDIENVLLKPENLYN
Sequence of endogenous CGRP receptor (O60894 27-148): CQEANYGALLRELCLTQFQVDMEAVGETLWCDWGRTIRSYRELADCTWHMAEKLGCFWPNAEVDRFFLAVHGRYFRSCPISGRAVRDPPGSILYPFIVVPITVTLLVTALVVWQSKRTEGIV
Consider `CC(C)(C)CCN1C(=O)[C@H](CC(=O)N2CCC(O)(c3ccc(F)cc3)CC2)S[C@@H]1c1cccc(F)c1N1CCN(C(C)(C)C)CC1` [Compound 453], for which the IC50 is less than 1000 nM.

For the compound `CC(=O)Nc1ccc(C2SC(CC(=O)N3CCC(N4Cc5ccccc5NC4=O)CC3)C(=O)N2CCC(C)C)cc1` (stereo not drawn) [Compound 213], the IC50 fell in the range of 1000 to 5000 nM.

Turning to `CC(C)(C)CCN1C(=O)C(CC(=O)N2CCC(N3Cc4ccccc4NC3=O)CC2)SC12CCCCCC2` (stereo not drawn) [Compound 154], the IC50 is less than 1000 nM.

For `C=CCN1C(=O)C(CC(=O)N2CCC(N3CCc4ccccc4NC3=O)CC2)SC1c1ccccc1` (stereo not drawn) [Compound 96], the IC50 was in the range of 1000 to 5000 nM.

For `CC(C)N1CCN(c2ncccc2C2S[C@@H](CC(=O)N3CCC(N4CCc5ccccc5NC4=O)CC3)C(=O)N2CCC(C)(C)C)CC1` (stereo partly drawn) [Compound 444], the 50% inhibitory concentration (IC50) was greater than 5000 nM.

`CC(C)(C)CCN1C(=O)[C@H](CC(=O)N2CCC(N3CCc4ccccc4NC3=O)CC2)SC1c1cccc(F)c1N1CCC(N2CCCCC2)CC1` (stereo partly drawn) [Compound 439]: the IC50 was less than 1000 nM.

For the compound `CC(C)(C)CCN1C(=O)[C@H](CC(=O)N2CCC(n3c(=O)[nH]c4ncccc43)CC2)S[C@H]1c1cccc(F)c1N1CCC(N2CCCCC2)CC1` [Compound 441], the IC50 is less than 1000 nM.

As to `CC(C)(C)CCN1C(=O)C(CC(=O)N2CCC(N3CCc4ccccc4NC3=O)CC2)SC1c1cccc2cc[nH]c12` (stereo not drawn) [Compound 277], the IC50 is less than 1000 nM.

In the case of `CC(C)CCN1C(=O)C(CC(=O)N2CCC(N3Cc4ccccc4NC3=O)CC2)SC12CCCCCC2` (stereo not drawn) [Compound 32], the IC50 was less than 1000 nM.

Take `CC(C)CCN1C(=O)C(CC(=O)N2CCC(N3Cc4ccccc4NC3=O)CC2)SC1c1ccc(Br)cc1` (stereo not drawn) [Compound 242]: the IC50 lay in the range of 1000 to 5000 nM.

Regarding `Cc1cc(C2SC(CC(=O)N3CCC(N4CCc5ccccc5NC4=O)CC3)C(=O)N2CCC(C)C)cc2cn[nH]c12` (stereo not drawn) [Compound 206], the IC50 is less than 1000 nM.

In the case of `CN1CCN(c2ccccc2[C@@H]2S[C@H](CC(=O)N3CCC(N4CCc5ccccc5NC4=O)CC3)C(=O)N2CCC(C)(C)C)CC1` [Compound 388], the IC50 is greater than 5000 nM.

On to `CC(C)CCN1C(=O)C(CC(=O)N2CCC(N3Cc4ccccc4NC3=O)CC2)SC1c1ccccc1N(C)C` (stereo not drawn) [Compound 121], for which the IC50 was less than 1000 nM.

Regarding `CN1CCN(c2c(Cl)cccc2C2SC(CC(=O)N3CCC(N4CCc5ccccc5NC4=O)CC3)C(=O)N2CCC(C)(C)C)CC1` (stereo not drawn) [Compound 356], the IC50 is less than 1000 nM.

Turning to `CN(C)CCCN(C)c1ccccc1C1SC(CC(=O)N2CCC(N3CCc4ccccc4NC3=O)CC2)C(=O)N1CCC(C)(C)C` (stereo not drawn) [Compound 385], the IC50 is 1000 to 5000 nM.

On to `Cc1cccc(C)c1C1SC(CC(=O)N2CCC(N3CCc4ccccc4NC3=O)CC2)C(=O)N1CCC(C)C` (stereo not drawn) [Compound 123], for which the IC50 is less than 1000 nM.

For `CC(C)CCN1C(=O)C(CC(=O)N2CCC3(CC2)C(=O)Nc2ccccc23)SC1c1ccccc1` (stereo not drawn) [Compound 111], the IC50 is greater than 5000 nM.

As to `CC(C)CCN1C(=O)C(CC(=O)N2CCC(n3c(=O)[nH]c4ccccc43)CC2)SC1c1ccccc1N1CCOCC1` (stereo not drawn) [Compound 294], the IC50 is less than 1000 nM.

For the compound `CC(C)CCN1C(=O)C(CC(=O)N2CCC(N3CCc4ccccc4NC3=O)CC2)SC1c1ccccc1N(C)C` (stereo not drawn) [Compound 152], the IC50 was less than 1000 nM.

`CCCN1C(=O)[C@H](CC(=O)N2CCC(N3CCc4ccccc4NC3=O)CC2)SC1c1cccc(F)c1N1CCN(C(C)(C)C)CC1` (stereo partly drawn) [Compound 536]: the IC50 is less than 1000 nM.

For `CN1CCN(c2ccccc2C2SC(CC(=O)N3CCC(N4Cc5cccnc5NC4=O)CC3)C(=O)N2CCC(C)(C)C)CC1` (stereo not drawn) [Compound 320], the IC50 was less than 1000 nM.

In the case of `CC(C)CCN1C(=O)C(CC(=O)N2CCC(N3Cc4ccccc4NC3=O)CC2)SC1C1CCCOC1` (stereo not drawn) [Compound 209], the 50% inhibitory concentration (IC50) was less than 1000 nM.

Turning to `O=C(CC1SC(C2CCCCC2)N(c2ccc(N3CCOCC3)cc2)C1=O)N1CCC(N2CCc3ccccc3NC2=O)CC1` (stereo not drawn) [Compound 421], the half-maximal inhibitory concentration (IC50) is less than 1000 nM.

On to `COC(=O)[C@H](CC(C)C)N1C(=O)C(CC(=O)N2CCC(N3Cc4ccccc4NC3=O)CC2)SC1c1ccccc1` (stereo partly drawn) [Compound 205], for which the IC50 was in the range of 1000 to 5000 nM.

Regarding `CC(C)(C)CC1SC(CC(=O)N2CCC(N3CCc4ccccc4NC3=O)CC2)C(=O)N1c1ccc(N2CCOCC2)cc1` (stereo not drawn) [Compound 423], the IC50 was less than 1000 nM.

Take `CC(C)CCN1C(=O)C(CC(=O)N2CCC(N3CCc4ccccc4NC3=O)CC2)SC1c1ccccc1N1CCCCC1` (stereo not drawn) [Compound 215]: the 50% inhibitory concentration (IC50) is less than 1000 nM.

As to `O=C(CC1SC(c2ccc(F)cc2F)N(CC2CCCCC2)C1=O)N1CCC(N2CCc3ccccc3NC2=O)CC1` (stereo not drawn) [Compound 135], the IC50 is less than 1000 nM.

Turning to `COc1ccc(C2SC(CC(=O)N3CCC(N4Cc5ccccc5NC4=O)CC3)C(=O)N2CCC(C)C)cc1F` (stereo not drawn) [Compound 18], the IC50 fell in the range of 1000 to 5000 nM.

As to `CC(C)(C)CCN1C(=O)C(CC(=O)N2CCC(N3Cc4ccccc4NC3=O)CC2)SC1c1ccc(F)cc1F` (stereo not drawn) [Compound 234], the IC50 is less than 1000 nM.

For `O=C(CC1SC(c2ccccc2)N(CCC(F)(F)F)C1=O)N1CCC(N2Cc3ccccc3NC2=O)CC1` (stereo not drawn) [Compound 191], the IC50 was less than 1000 nM.

For the compound `CC(C)CCN1C(=O)C(CC(=O)N2CCC(N3CCc4ccccc4NC3=O)CC2)SC1CCc1ccccc1` (stereo not drawn) [Compound 262], the IC50 is 1000 to 5000 nM.

On to `CC(C)CCN1C(=O)C(CC(=O)N2CCC(N3CCc4ccccc4NC3=O)CC2)SC1c1ccccc1OCc1ccccc1` (stereo not drawn) [Compound 65], for which the IC50 was less than 1000 nM.

`CN1CCN(c2ccccc2[C@@H]2S[C@](C)(CC(=O)N3CCC(n4c(=O)[nH]c5ncccc54)CC3)C(=O)N2CCC(C)(C)C)CC1` [Compound 378]: the IC50 is less than 1000 nM.

With `CCN1CCN(c2c(F)cccc2C2SC(CC(=O)N3CCC(n4cc(-c5ccccc5)[nH]c4=O)CC3)C(=O)N2CCC(C)(C)C)CC1` (stereo not drawn) [Compound 346], the IC50 is less than 1000 nM.

In the case of `CC(C)(C)CC1SC(CC(=O)N2CCC(n3c(=O)[nH]c4ncccc43)CC2)C(=O)N1c1ccccc1` (stereo not drawn) [Compound 417], the IC50 lay in the range of 1000 to 5000 nM.

As to `CCN1C(=O)C(CC(=O)N2CCC(N3CCc4ccccc4NC3=O)CC2)SC1c1ccccc1` (stereo not drawn) [Compound 284], the IC50 was 1000 to 5000 nM.

Regarding `CC(C)(C)CCN1C(=O)C(CC(=O)N2CCC(N3CCc4ccccc4NC3=O)CC2)SC1c1cccc(F)c1N1CCN(CC(F)(F)F)CC1` (stereo not drawn) [Compound 392], the IC50 is greater than 5000 nM.

In the case of `CC(C)(C)CCN1C(=O)C(CC(=O)N2CCC(n3c(=O)[nH]c4ncccc43)CC2)SC1c1ccccc1N1CCC(N2CCCCC2)CC1` (stereo not drawn) [Compound 387], the IC50 is less than 1000 nM.

`CC(C)CCN1C(=O)C(CC(=O)N2CCC(N3Cc4ccccc4NC3=O)CC2)SC1c1c(F)cccc1Cl` (stereo not drawn) [Compound 166]: the IC50 is less than 1000 nM.

On to `COc1ccc(C2SC(CC(=O)N3CCC(N4Cc5ccccc5NC4=O)CC3)C(=O)N2CCC(C)C)cc1` (stereo not drawn) [Compound 272], for which the IC50 fell in the range of 1000 to 5000 nM.

In the case of `CC1=CCCC(C)C1C1SC(CC(=O)N2CCC(N3Cc4ccccc4NC3=O)CC2)C(=O)N1CCC(C)C` (stereo not drawn) [Compound 100], the concentration for half-maximal inhibition (IC50) was less than 1000 nM.

In the case of `CN1C(=O)C(CC(=O)N2CCC(N3CCc4ccccc4NC3=O)CC2)SC1c1ccccc1` (stereo not drawn) [Compound 132], the IC50 was in the range of 1000 to 5000 nM.

For the compound `CC(=O)Nc1ccc(C)cc1C1(O)CCN(C(=O)CC2SC(c3ccccc3)N(CCC(C)C)C2=O)CC1` (stereo not drawn) [Compound 143], the half-inhibitory concentration (IC50) was greater than 5000 nM.

Consider `O=C(CC1SC(C2CCOCC2)N(c2ccc(N3CCOCC3)cc2)C1=O)N1CCC(N2CCc3ccccc3NC2=O)CC1` (stereo not drawn) [Compound 422], for which the IC50 was less than 1000 nM.

Take `O=C(CC1SC(C2CCCCC2)N(c2ccc(N3CCOCC3)cc2)C1=O)N1CCC(n2c(=O)[nH]c3ncccc32)CC1` (stereo not drawn) [Compound 425]: the IC50 is less than 1000 nM.

With `CC(C)(C)CCN1C(=O)C(CC(=O)N2CCC(N3CCc4ccccc4NC3=O)CC2)SC1c1ccccc1N1CCCCC1` (stereo not drawn) [Compound 7], the IC50 was less than 1000 nM.

As for `CC(C)CCN1C(=O)C(CC(=O)N2CCC(N3Cc4ccccc4NC3=O)CC2)SC12CCCCC2` (stereo not drawn) [Compound 86], the IC50 fell in the range of 1000 to 5000 nM.

For `CN1CCN(c2cc(F)ccc2C2SC(CC(=O)N3CCC(N4CCc5ccccc5NC4=O)CC3)C(=O)N2CCC(C)(C)C)CC1` (stereo not drawn) [Compound 361], the IC50 was in the range of 1000 to 5000 nM.

Consider `CC(C)(C)CCN1C(=O)[C@H](CC(=O)N2CCC(N3Cc4ccccc4NC3=O)CC2)SC1c1cccc(F)c1N1CCC(N)C1` (stereo partly drawn) [Compound 467], for which the IC50 fell in the range of 1000 to 5000 nM.

Take `O=C(CC1SC(c2ccccc2)N(Cc2ccncc2)C1=O)N1CCC(n2c(=O)[nH]c3ccccc32)CC1` (stereo not drawn) [Compound 108]: the IC50 was greater than 5000 nM.

With `CC(C)(C)CC1SC(CC(=O)N2CCC(n3c(=O)[nH]c4ncccc43)CC2)C(=O)N1c1ccccc1N1CCCCC1` (stereo not drawn) [Compound 428], the IC50 is greater than 5000 nM.

For the compound `CN1CCN(c2ccccc2C2SC(CC(=O)N3CCC(N4CCc5ccccc5NC4=O)CC3)C(=O)N2CC(C)(C)C)CC1` (stereo not drawn) [Compound 410], the IC50 is less than 1000 nM.

In the case of `CC(C)(C)CCN1C(=O)[C@H](CC(=O)N2CCC(N3Cc4ccccc4NC3=O)CC2)S[C@H]1c1cccc(F)c1N1CCC(N)C1` (stereo partly drawn) [Compound 472], the IC50 is less than 1000 nM.

For the compound `CC(C)(C)CCN1C(=O)C(CC(=O)N2CCC(N3CCc4ccccc4NC3=O)CC2)SC1c1c(F)cccc1F` (stereo not drawn) [Compound 217], the half-maximal inhibitory concentration (IC50) is less than 1000 nM.

With `Cc1cc(C)c(C2SC(CC(=O)N3CCC(N4Cc5ccccc5NC4=O)CC3)C(=O)N2CCC(C)C)c(C)c1` (stereo not drawn) [Compound 51], the IC50 was less than 1000 nM.

Take `CN(C)[C@H]1CCN(c2ccccc2C2SC(CC(=O)N3CCC(n4c(=O)[nH]c5ncccc54)CC3)C(=O)N2CCC(C)(C)C)C1` (stereo partly drawn) [Compound 404]: the IC50 was 1000 to 5000 nM.

For `CC(C)CCN1C(=O)C(CC(=O)N2CCC(N3Cc4ccccc4NC3=O)CC2)SC1c1ccc(C(C)(C)C)cc1` (stereo not drawn) [Compound 197], the IC50 was greater than 5000 nM.

For the compound `CC(C)(C)CCN1C(=O)C(CC(=O)N2CCC(N3CCc4ccccc4NC3=O)CC2)SC1c1cccc2cc[nH]c12` (stereo not drawn) [Compound 130], the 50% inhibitory concentration (IC50) was 1000 to 5000 nM.

In the case of `O=C(CC1SC(C2CCOCC2)N(c2ccc(N3CCOCC3)cc2)C1=O)N1CCC(n2c(=O)[nH]c3ncccc32)CC1` (stereo not drawn) [Compound 426], the IC50 lay in the range of 1000 to 5000 nM.

For the compound `O=C(CC1SC(c2ccccc2)N(Cc2ccncc2)C1=O)N1CCC(N2Cc3ccccc3NC2=O)CC1` (stereo not drawn) [Compound 46], the half-inhibitory concentration (IC50) was in the range of 1000 to 5000 nM.

Source of the values: patent US8163737B2 (Vertex Pharmaceuticals Incorporated, priority 2006, dated 2012).
